Columns and labels:
[1] = target: T1, HiBit-BRM fusion protein (Homo sapiens, UniProt P51531); test: HiBiT-BRM cell-based degradation assay (Nano-Glo HiBiT Lytic Detection, 24 h); conditions: HeLa cells expressing HiBiT-BRM; for DC50: read-out: BRM HiBit Degradation IC50; for BRM HiBit Degradation Maximum measured: top dose 30 μM
T1 construct: expressed in transfected cells
How it was run: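 Luminescence from reconstituted NanoBiT luciferase in lysed HeLa HiBiT-BRM cells served as the measure of remaining BRM after 24 h treatment. Compounds were tested from 30 μM final downward in 3-fold steps. DMSO and 2 μM of a standard BRM/BRG1 degrader defined the scale limits.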

[2] = target: T2, HiBit-BRG1 fusion protein (Homo sapiens, UniProt P51532); test: HiBiT-BRG1 cell-based degradation assay (Nano-Glo HiBiT Lytic Detection, 24 h); conditions: HeLa cells expressing HiBit-BRG1 and LgBit; for DC50: read-out: BRG1 HiBit Degradation IC50; for Dmax: HeLa, top dose 30 μM, read-out: BRG1 HiBit Degradation Maximum measured
T2 construct: expressed in transfected cells
How it was run: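 Stable HeLa line expressing HiBiT-BRG1 and LgBiT, seeded at 5000 cells/well; luminescence read after lytic Nano-Glo HiBiT reagent and 10 min shaking at RT. % degradation normalised between DMSO (high control) and 2 μM reference BRM/BRG1 degrader (low control).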

T2 sequence (P51532 whole entry, the tested form may be a part): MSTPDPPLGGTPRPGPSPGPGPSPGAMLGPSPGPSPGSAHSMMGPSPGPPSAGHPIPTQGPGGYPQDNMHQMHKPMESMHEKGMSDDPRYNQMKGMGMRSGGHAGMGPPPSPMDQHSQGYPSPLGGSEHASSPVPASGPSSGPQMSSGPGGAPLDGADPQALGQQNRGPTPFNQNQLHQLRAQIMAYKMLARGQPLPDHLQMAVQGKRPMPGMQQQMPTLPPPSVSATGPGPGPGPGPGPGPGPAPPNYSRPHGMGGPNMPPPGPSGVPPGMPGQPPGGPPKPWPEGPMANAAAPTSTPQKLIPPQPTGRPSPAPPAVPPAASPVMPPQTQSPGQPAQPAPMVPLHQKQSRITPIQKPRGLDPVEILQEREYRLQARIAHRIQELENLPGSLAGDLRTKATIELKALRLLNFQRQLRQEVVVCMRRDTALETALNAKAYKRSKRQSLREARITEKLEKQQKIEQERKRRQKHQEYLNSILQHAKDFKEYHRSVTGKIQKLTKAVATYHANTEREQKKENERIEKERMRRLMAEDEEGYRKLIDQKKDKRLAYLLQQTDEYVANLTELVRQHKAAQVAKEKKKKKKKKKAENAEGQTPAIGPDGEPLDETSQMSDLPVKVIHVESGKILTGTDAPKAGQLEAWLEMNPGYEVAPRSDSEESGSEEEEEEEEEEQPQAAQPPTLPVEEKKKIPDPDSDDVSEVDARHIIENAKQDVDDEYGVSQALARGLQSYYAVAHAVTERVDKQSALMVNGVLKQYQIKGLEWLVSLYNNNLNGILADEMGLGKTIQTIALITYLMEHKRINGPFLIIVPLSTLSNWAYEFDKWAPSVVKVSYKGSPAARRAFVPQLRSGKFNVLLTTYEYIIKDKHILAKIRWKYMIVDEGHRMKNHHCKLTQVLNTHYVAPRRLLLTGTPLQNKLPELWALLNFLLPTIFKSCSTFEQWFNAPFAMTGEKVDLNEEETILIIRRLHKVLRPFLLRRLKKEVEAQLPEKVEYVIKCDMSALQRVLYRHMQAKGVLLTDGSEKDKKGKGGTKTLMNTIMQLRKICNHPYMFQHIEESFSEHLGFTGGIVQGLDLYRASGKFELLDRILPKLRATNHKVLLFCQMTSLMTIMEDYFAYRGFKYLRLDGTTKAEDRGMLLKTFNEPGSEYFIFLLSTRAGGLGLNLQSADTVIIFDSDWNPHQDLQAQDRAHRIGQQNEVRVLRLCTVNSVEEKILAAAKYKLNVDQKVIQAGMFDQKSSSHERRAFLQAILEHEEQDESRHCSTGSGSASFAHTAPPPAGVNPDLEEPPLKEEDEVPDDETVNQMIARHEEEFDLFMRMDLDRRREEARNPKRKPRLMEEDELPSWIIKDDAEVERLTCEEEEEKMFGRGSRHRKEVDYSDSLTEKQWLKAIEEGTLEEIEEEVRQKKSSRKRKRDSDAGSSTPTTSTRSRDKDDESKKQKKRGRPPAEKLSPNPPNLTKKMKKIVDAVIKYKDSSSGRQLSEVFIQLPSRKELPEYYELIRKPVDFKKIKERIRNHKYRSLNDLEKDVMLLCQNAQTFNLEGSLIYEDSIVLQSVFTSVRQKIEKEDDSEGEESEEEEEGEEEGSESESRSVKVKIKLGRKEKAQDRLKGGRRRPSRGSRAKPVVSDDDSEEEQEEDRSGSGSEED
T1 sequence (P51531 whole entry, the tested form may be a part): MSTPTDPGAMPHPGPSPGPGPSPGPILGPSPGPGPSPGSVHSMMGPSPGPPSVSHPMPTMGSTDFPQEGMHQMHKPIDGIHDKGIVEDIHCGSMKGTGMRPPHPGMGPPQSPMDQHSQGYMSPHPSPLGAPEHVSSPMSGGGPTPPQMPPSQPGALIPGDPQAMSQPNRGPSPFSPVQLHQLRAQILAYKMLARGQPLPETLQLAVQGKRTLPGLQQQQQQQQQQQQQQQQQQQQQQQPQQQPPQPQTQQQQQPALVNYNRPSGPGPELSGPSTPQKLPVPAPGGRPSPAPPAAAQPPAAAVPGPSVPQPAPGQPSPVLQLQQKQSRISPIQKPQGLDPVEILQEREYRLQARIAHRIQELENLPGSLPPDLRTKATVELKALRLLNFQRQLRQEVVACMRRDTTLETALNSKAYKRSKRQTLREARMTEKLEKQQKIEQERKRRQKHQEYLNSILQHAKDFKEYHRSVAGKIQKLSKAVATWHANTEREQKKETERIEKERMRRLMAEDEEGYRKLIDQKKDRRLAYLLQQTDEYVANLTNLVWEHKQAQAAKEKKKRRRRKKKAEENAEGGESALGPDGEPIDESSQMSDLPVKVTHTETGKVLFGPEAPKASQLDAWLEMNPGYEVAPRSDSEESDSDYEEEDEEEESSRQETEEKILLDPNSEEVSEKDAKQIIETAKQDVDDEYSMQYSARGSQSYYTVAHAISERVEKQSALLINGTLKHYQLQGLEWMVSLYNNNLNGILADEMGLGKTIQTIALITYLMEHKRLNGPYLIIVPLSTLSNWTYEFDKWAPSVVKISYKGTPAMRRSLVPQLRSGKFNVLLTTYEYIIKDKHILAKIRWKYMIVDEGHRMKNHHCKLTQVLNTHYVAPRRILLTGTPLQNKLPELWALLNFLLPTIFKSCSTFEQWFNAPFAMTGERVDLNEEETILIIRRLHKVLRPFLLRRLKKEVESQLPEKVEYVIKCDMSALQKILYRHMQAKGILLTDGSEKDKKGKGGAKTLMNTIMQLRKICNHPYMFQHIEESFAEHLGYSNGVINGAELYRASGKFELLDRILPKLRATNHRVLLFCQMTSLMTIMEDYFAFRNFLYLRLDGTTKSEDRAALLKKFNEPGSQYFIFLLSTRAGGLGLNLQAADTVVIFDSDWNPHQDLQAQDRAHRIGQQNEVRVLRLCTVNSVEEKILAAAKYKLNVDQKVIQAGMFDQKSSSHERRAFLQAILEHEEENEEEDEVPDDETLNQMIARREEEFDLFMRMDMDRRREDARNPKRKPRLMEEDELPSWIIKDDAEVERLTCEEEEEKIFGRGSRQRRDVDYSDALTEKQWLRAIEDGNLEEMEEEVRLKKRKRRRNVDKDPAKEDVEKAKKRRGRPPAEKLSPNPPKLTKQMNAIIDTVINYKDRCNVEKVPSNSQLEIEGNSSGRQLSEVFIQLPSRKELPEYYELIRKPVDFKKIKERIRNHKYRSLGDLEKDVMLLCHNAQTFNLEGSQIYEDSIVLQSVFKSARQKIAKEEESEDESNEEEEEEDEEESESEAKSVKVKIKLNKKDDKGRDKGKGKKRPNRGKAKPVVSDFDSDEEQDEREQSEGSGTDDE

Row | Compound | DC50 [1] [µM] | BRM HiBit Degradation Maximum measured [1] | DC50 [2] [µM] | Dmax [2] [%]
1 | Cc1ncsc1-c1ccc(CNC(=O)[C@@H]2C[C@@H](O)CN2C(=O)[C@@H](NC(=O)CCCCCCC(=O)NCc2ccc(COC[C@H](NC(=O)c3ccn(S(C)(=O)=O)c3)C(=O)Nc3nc(-c4ccccc4)cs3)cc2)C(C)(C)C)cc1 [Compound 210, N-[(2S)-1-[(2S,4R)-4-hydroxy-2-([[4-(4-methyl-1,3-thiazol-5-yl)phenyl]methyl]carbamoyl)pyrrolidin-1-yl]-3,3-dimethyl-1-oxobutan-2-yl]-N′-[(4-[[(2S)-2-[(1-methanesulfonylpyrrol-3-yl)formamido]-2-[(4-phenyl-1,3-thiazol-2-yl)carbamoyl]ethoxy]methyl]phenyl)methyl]octanediamide] | > 10 | C (‘C’ = Maximum degradation <50%) | > 10 | < 50
2 | Cc1ncsc1-c1ccc(CNC(=O)[C@@H]2CC(O)CN2C(=O)[C@@H](NC(=O)COCCOCCOCCNC(=O)CN(C)c2cc(-c3cccc(-c4csc(NC(=O)CNC(=O)c5ccn(S(C)(=O)=O)c5)n4)c3)ccn2)C(C)(C)C)cc1 (stereo partly drawn) [Compound 89] | > 10 | C (‘C’ = Maximum degradation <50%) | > 10 | < 50
3 | Cc1ncsc1-c1ccc(CNC(=O)[C@@H]2C[C@@H](O)CN2C(=O)[C@@H](NC(=O)CCCCCCCCCCCCC(=O)NCCCC[C@H](NC(=O)c2ccn(S(C)(=O)=O)c2)C(=O)Nc2nc(-c3ccccc3)cs2)C(C)(C)C)cc1 [Compound 267, N-[(2S)-1-[(2S,4R)-4-hydroxy-2-([[4-(4-methyl-1,3-thiazol-5-yl)phenyl]methyl]carbamoyl)pyrrolidin-1-yl]-3,3-dimethyl-1-oxobutan-2-yl]-N-[(5S)-5-[(1-methanesulf-onylpyrrol-3-yl)formamido]-5-[(4-phenyl-1,3-thiazol-2-yl)carbamoyl]pentyl]tetradecanediamide] | > 10 | C (‘C’ = Maximum degradation <50%) | > 10 | < 50
4 | CS(=O)(=O)n1ccc(C(=O)NCC(=O)Nc2nc(-c3cccc(-c4ccn(CC(=O)NCCCCCNc5cccc6c5C(=O)N(C5CCC(=O)NC5=O)C6=O)n4)c3)cs2)c1 (stereo not drawn) [Compound 2, N-[2-[[4-[3-[1-[2-[5-[[2-(2,6-dioxo-3-piperidyl)-1,3-dioxoisoindolin-4-yl]amino]pentylamino]-2-oxo-ethyl]pyrazol-3-yl]phenyl]thiazol-2-yl]amino]-2-oxo-ethyl]-1-methylsulfonylpyrrole-3-carboxamide] | > 10 | C (‘C’ = Maximum degradation <50%) | > 10 | < 50
5 | CS(=O)(=O)n1ccc(C(=O)N[C@@H](COCc2ccc(CNC(=O)CCCCOc3cccc4c3C(=O)N(C3CCC(=O)NC3=O)C4=O)cc2)C(=O)Nc2nc(-c3ccccc3)cs2)c1 (stereo partly drawn) [Compound 212, 5-[[2-(2,6-dioxopiperidin-3-yl)-1,3-dioxoisoindol-4-yl]oxy]-N-[(4-[[(2S)-2-[(1-methanesulfonylpyrrol-3-yl)formamido]-2-[(4-phenyl-1,3-thiazol-2-yl)carbamoyl]ethoxy]methyl]phenyl)methyl]pentanamide] | > 10 | C (‘C’ = Maximum degradation <50%) | > 10 | < 50
6 | Cc1ncsc1-c1ccc(CNC(=O)[C@@H]2C[C@@H](O)CN2C(=O)[C@@H](NC(=O)COCC(=O)NCc2cccc(-c3cccc(-c4csc(NC(=O)CNC(=O)c5ccn(S(C)(=O)=O)c5)n4)c3)c2)C(C)(C)C)cc1 [Compound 18, N-[2-[[4-[3-[3-[[[2-[2-[[(1S)-1-[(2S,4R)-4-hydroxy-2-[[4-(4-methylthiazol-5-yl)phenyl]methylcarbamoyl]pyrrolidine-1-carbonyl]-2,2-dimethyl-propyl]amino]-2-oxo-ethoxy]acetyl]amino]methyl]-phenyl]phenyl]thiazol-2-yl]amino]-2-oxo-ethyl]-1-methylsulfonyl-pyrrole-3-carboxamide] | > 10 | C (‘C’ = Maximum degradation <50%) | > 10 | < 50
7 | CS(=O)(=O)n1ccc(C(=O)NCC(=O)Nc2nc(-c3cccc(-c4cccc(CNC(=O)CCCCCCCOc5cccc6c5C(=O)N(C5CCC(=O)NC5=O)C6=O)c4)c3)cs2)c1 (stereo not drawn) [Compound 59, N-(2-((4-(3′-((8-((2-(2,6-dioxopiperidin-3-yl)-1,3-dioxoisoindolin-4-yl)oxy)octanamido)methyl)-[1,1′-biphenyl]-3-yl)thiazol-2-yl)amino)-2-oxoethyl)-1-(methylsulfonyl)-1H-pyrrole-3-carboxamide] | > 10 | C (‘C’ = Maximum degradation <50%) | > 10 | < 50
8 | Cc1ncsc1-c1ccc(CNC(=O)[C@@H]2C[C@@H](O)CN2C(=O)[C@@H](NC(=O)CCCCCCC(=O)NCc2cc(-c3cccc(-c4csc(NC(=O)CNC(=O)c5ccn(S(C)(=O)=O)c5)n4)c3)ccn2)C(C)(C)C)cc1 [Compound 142] | > 10 | C (‘C’ = Maximum degradation <50%) | > 10 | < 50
9 | CS(=O)(=O)n1ccc(C(=O)N[C@@H](COCc2ccc(C(=O)NCCOCCOCCNC(=O)COc3cccc4c3C(=O)N(C3CCC(=O)NC3=O)C4=O)cc2)C(=O)Nc2nc(-c3ccccc3)cs2)c1 (stereo partly drawn) [Compound 196] | > 10 | C (‘C’ = Maximum degradation <50%) | > 10 | < 50
10 | CC(C)(C)n1ccc(C(=O)N[C@@H](COCc2ccc(C(=O)NC3CCN(CCOc4ccc5c(c4)C(=O)N(C4CCC(=O)NC4=O)C5=O)CC3)cc2)C(=O)Nc2nc(-c3ccccc3)cs2)c1 (stereo partly drawn) [Compound 170, 4-[[(2S)-2-[(1-tert-butylpyrrol-3-yl)formamido]-2-[(4-phenyl-1,3-thiazol-2-yl)carbamoyl]ethoxy]methyl]-N-[1-(2-[[2-(2,6-dioxopiperidin-3-yl)-1,3-dioxoisoindol-5-yl]oxy]ethyl)piperidin-4-yl]benzamide] | 0.1 to 1 | A (‘A’ = Maximum degradation >75%) | 0.1 to 1 | > 75
11 | CS(=O)(=O)n1ccc(C(=O)NCC(=O)Nc2nc(-c3cccc(-c4ccnc(C5(C(=O)NCCNc6ccc7c(c6)CN(C6CCC(=O)NC6=O)C7=O)CC5)c4)c3)cs2)c1 (stereo not drawn) [Compound 167, N-(2-[[2-(2,6-dioxopiperidin-3-yl)-1-oxo-3H-isoindol-5-yl]amino]ethyl)-1-[4-[3-(2-[2-[(1-methanesulfonylpyrrol-3-yl)formamido]acetamido]-1,3-thiazol-4-yl)phenyl]pyridin-2-yl]cyclopropane-1-carboxamide] | < 0.1 | A (‘A’ = Maximum degradation >75%) | < 0.1 | > 75
12 | CS(=O)(=O)n1ccc(C(=O)NCC(=O)Nc2nc(C3CCCN(C(=O)CCCCCCCOc4cccc5c4C(=O)N(C4CCC(=O)NC4=O)C5=O)C3)cs2)c1 (stereo not drawn) [Compound 148, N-{4-[1-(8-{[2-(2,6-dioxopiperidin-3-yl)-1,3-dioxo-2,3-dihydro-1H-isoindol-4-yl]oxy}octanoyl)piperidin-3-yl]-1,3-thiazol-2-yl}-2-[(1-methanesulfonyl-1H-pyrrol-3-yl)formamido]acetamide] | > 10 | C (‘C’ = Maximum degradation <50%) | > 10 | < 50
13 | CS(=O)(=O)n1ccc(C(=O)NCC(=O)Nc2nc(-c3cccc(-c4ccnc(C5(C(=O)NCCCCCCCCNC(=O)COc6cccc7c6C(=O)N(C6CCC(=O)NC6=O)C7=O)CC5)c4)c3)cs2)c1 (stereo not drawn) [Compound 13, N-(2-((4-(3-(2-(1-((8-(2-((2-(2,6-dioxopiperidin-3-yl)-1,3-dioxoisoindolin-4-yl)oxy)acetamido)octyl)carbamoyl)-cyclopropyl)pyridin-4-yl)phenyl)thiazol-2-yl)amino)-2-oxoethyl)-1-(methylsulfonyl)-1H-pyrrole-3-carboxamide] | > 10 | C (‘C’ = Maximum degradation <50%) | 0.1 to 1 | 50 to 75
14 | CS(=O)(=O)n1ccc(C(=O)N[C@@H](CCOCCCC(=O)NCCCCCNc2ccc3c(c2)C(=O)N(C2CCC(=O)NC2=O)C3=O)C(=O)Nc2nc(-c3ccccc3)cs2)c1 (stereo partly drawn) [Compound 287, (2S)-4-[3-[(5-[[2-(2,6-dioxopiperidin-3-yl)-1,3-dioxoisoindol-5-yl]amino]pentyl)carbamoyl]propoxy]-2-[(1-methanesulfonylpyrrol-3-yl)formamido]-N-(4-phenyl-1,3-thiazol-2-yl)butanamide] | > 10 | C (‘C’ = Maximum degradation <50%) | > 10 | < 50
15 | CN(CCNC(=O)C1(c2cc(-c3cccc(-c4csc(NC(=O)CNC(=O)c5ccn(S(C)(=O)=O)c5)n4)c3)ccn2)CC1)CCOCCOc1cccc2c1C(=O)N(C1CCC(=O)NC1=O)C2=O (stereo not drawn) [Compound 112, N-(2-((4-(3-(2-(1-((2-((2-(2-((2-(2,6-dioxopiperidin-3-yl)-1,3-dioxoisoindolin-4-yl)oxy)ethoxy)ethyl)(methyl)amino)-ethyl)carbamoyl)cyclopropyl)-pyridin-4-yl)phenyl)thiazol-2-yl)amino)-2-oxoethyl)-1-(methylsulfonyl)-1H-pyrrole-3-carboxamide] | > 10 | C (‘C’ = Maximum degradation <50%) | > 10 | < 50
